US20180106782A1, “HIGH THROUGHPUT CARDIOTOXICITY SCREENING PLATFORM” (The Board of Trustees of the Leland Stanford Junior …, priority 2016, published 2018)

Tested on: μpatterned hiPSC-CMs
Assay: traction force microscopy of moving microbeads under beating μpatterned hiPSC-CMs
Format: cell-based, human
Description: We cultured single hiPSC-CMs on Matrigel micropatterns, which were transferred from printed glass coverslips onto the surface of polyacrylamide hydrogels with a stiffness of 10 kPa as previously described. (Ribeiro 2015a) In summary, Matrigel was diluted 1:10 in L15 medium (Thermo Fisher) and added to the top of elastomeric microstamps composed of polydimethylsiloxane 182 (Dow Corning) to be incubated at 3-4° C. overnight. Microstamps consisted of 2000 μm^2 rectangular features with an aspect ratio of 7:1 (length:width). We gently aspirated Matrigel after the overnight incubation, washed the stamps twice in L15 medium, aspirated L15 medium from the surface and dried it with a low stream of N2 gas. We then used microstamps to micropattern the Matrigel rectangular features on clean glass coverslips by microcontact printing. Matrigel on micropatterns was transferred to the surface of the polyacrylamide substrates during the gelation process by placing the patterned coverslip in contact with the top of the acrylamide prepolymer solution right before gelation. The aqueous prepolymer solution to be gelled was composed of acrylamide (Sigma-Aldrich)(10% w/v), bisacrylamide (Sigma-Aldrich) (0.1% w/v), ammonium persulfate (Sigma-Aldrich) (0.01% w/v) and N,N,N′,N′-tetramethylethylenediamine (Sigma-Aldrich) (0.1% v/v), HEPES (Thermo Fisher) (35 mM) and Milli-Q water. To calculate the forces generated by cells attached to polyacrylamide surfaces with traction force microscopy, green fluorescent microbeads with a diameter of 0.2 μm (Thermo Fisher) were also dispersed in the gel solution to yield a final concentration of 6.25×10^9 microbeads/mL. We gelled acrylamide on top of another coverslip functionalized with 3-(trimethoxysilyl)propyl methacrylate (Sigma-Aldrich), which binds polyacrylamide. […] Once polymerized, polyacrylamide substrates were incubated in PBS for at least 2 hours and the top coverslips were carefully removed with a razor blade. We seeded hiPSC-CMs on these polyacrylamide hydrogel substrates after washing them 3 times with PBS.
We passaged hiPSC-CMs onto micropatterned polyacrylamide devices at a density of 1000 cells/cm^2. For this purpose, cultures of thawed cells were washed twice with PBS and incubated in 1 mL of Accutase for 8-10 min. After observing cell detachment from the bottom of the wells, we quenched Accutase with Dulbecco's modified Eagle's medium (Thermo Fisher) containing 12% fetal bovine serum and counted the concentration of cells in medium with a hemocytometer. Then, we centrifuged cells at 83 rcf for 3 min at room temperature and aspirated the supernatant to resuspend the pelleted cells in the required volume of medium (RPMI-1640 cell-culture medium with 5 μM ROCK inhibitor) for adding 150 μL of cell solution to the surface of hydrogel devices at a concentration of 1000 cells/cm^2. After 1.5 h of incubation, we added 2.5 mL of medium to the well containing hydrogel devices and added fresh medium without ROCK inhibitor after 2 days. Single beating cells on Matrigel patterns were analyzed between 5-10 days after seeding.
We imaged the movement of beating hiPSC-CMs and the displacement of fluorescent microbeads embedded in polyacrylamide substrates with a Zeiss Axiovert 200M inverted microscope equipped with a Zeiss Axiocam MRm CCD camera. This microscope also contained an environmental chamber (PeCon) to set temperature at 37° C. Unless otherwise noted, we acquired microscopy videos while electrically pacing hiPSC-CMs with 10 ms-wide bipolar pulses of electric-field stimulation at 10-15 V with a frequency of 1 Hz (Myopacer, lonOptix).
To induce contractile changes in hiPSC-CMs, we added drugs known to affect CM contractile machinery to the culture medium. We analyzed the mechanical output of cells after adding drugs. […]

[1] = extracellular caffeine slowly increased up to 10 μM (FIG. 3C)

Cn1c(=O)c2c(ncn2C)n(C)c1=O [caffeine]
kinetics of relaxation right after adding caffeine [1]: sudden decrease
mechanical output right after adding caffeine [1]: sudden increase
t̂ (time between peak velocity of contraction and peak velocity of relaxation) (low doses of caffeine slowly diffused through the culture media, single cell (FIG. 3B)): increase
magnitude of the contractions that followed and kinetics of relaxation (with increasing caffeine extracellular concentration (FIG. 3)): considerably decreased
